# In article PMC4798942 (ACS chemical biology, 2015):
# Where two headings read alike, the source gives them in different places.
# Assays:
# Format in all cases: biochemical
# [1] = biological target: T1, human CP4H1 (collagen prolyl 4-hydroxylase 1, alpha(I)2beta2 holoenzyme) (Homo sapiens, UniProt P13674); assay: dose-response inhibition of CP4H1 hydroxylation activity
# [2] = biological target: T1, human CP4H1 (collagen prolyl 4-hydroxylase 1, alpha(I)2beta2 holoenzyme); assay: inhibition of CP4H1 activity in vitro; settings: 100 µM compound
# human PHD2 = human PHD2 (Homo sapiens, UniProt Q9GZT9); assay: inhibition of PHD2 activity in vitro
# Chain of human PHD2 (Q9GZT9 2-426): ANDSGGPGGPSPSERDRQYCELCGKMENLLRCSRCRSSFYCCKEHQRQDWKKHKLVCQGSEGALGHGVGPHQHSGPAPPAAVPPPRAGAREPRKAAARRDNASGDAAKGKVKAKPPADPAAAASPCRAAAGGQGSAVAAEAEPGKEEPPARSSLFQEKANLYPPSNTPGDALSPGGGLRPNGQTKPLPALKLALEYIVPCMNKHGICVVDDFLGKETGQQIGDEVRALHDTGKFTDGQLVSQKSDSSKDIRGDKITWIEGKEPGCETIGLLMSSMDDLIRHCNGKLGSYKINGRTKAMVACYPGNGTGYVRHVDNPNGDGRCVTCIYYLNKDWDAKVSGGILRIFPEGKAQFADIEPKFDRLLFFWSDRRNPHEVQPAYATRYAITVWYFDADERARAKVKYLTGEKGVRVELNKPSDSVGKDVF
# [3] = biological target: T1, human CP4H1 (collagen prolyl 4-hydroxylase 1, alpha(I)2beta2 holoenzyme); assay: Lineweaver-Burk analysis of CP4H1 activity
# [4] = Fe(II) and AKG dependent reaction
# T1 sequence (P13674 18-534): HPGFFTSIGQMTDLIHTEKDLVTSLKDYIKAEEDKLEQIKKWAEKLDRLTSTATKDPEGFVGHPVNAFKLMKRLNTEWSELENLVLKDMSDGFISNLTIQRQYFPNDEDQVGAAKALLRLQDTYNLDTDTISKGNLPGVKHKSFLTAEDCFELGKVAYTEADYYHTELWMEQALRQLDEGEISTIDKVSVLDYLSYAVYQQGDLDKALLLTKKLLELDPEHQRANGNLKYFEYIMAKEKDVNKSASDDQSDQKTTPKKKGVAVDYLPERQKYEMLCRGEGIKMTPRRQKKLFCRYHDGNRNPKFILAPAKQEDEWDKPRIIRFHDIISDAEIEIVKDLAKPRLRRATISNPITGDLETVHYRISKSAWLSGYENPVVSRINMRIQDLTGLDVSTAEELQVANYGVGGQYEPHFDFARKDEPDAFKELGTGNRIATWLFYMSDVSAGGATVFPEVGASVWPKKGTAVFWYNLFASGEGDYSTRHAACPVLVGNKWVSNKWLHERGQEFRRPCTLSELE
# T1 sequence (P07237 18-508 partner): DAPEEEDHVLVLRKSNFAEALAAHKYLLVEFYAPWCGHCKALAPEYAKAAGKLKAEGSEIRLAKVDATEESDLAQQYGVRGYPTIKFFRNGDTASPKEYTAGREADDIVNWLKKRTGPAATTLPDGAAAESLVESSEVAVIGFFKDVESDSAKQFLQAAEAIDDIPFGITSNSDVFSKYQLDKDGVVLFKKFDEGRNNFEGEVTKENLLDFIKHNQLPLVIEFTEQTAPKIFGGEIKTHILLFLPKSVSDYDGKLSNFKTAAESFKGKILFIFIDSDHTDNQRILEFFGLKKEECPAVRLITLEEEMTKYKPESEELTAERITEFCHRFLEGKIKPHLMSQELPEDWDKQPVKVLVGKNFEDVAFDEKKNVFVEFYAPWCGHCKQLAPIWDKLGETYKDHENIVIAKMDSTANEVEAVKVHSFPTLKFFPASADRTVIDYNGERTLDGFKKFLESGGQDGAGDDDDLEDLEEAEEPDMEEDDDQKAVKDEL
smiles,measurement,setting,value
O=C(O)c1ccc(-c2ncc(C(=O)O)o2)nc1 [pyoxDC],IC50,[1]; [4],33 ± 8 µM
CCOC(=O)c1ccc(-c2ncc(C(=O)OCC)s2)nc1 [diethyl pythiDC],inhibition at 100 μM,[2],No inhibition of catalysis by CP4H1 or PHD2 was observed in vitro with these diethyl esters
O=C(O)c1ccc(-c2ncc(C(=O)O)[nH]2)nc1 [pyimDC],IC50,[1]; [4],2.6 ± 0.1 µM
"O=C(O)c1ccc(-c2ncc(C(=O)O)s2)nc1 [pythiDC, 2 (5-carboxythiazol-2-yl)pyridine-5-carboxylic acid]",inhibition,human PHD2,"inhibit human PHD2 only weakly (Figure S4), with pythiDC displaying especially low potency"
same,IC50,[1],4 ± 0.2 µM
same,Ki,[3],0.39 ± 0.04 µM
